The text below walks through data of patent publication US20040142887A1, “Antigen-polymer compositions” (priority 2002, published 2004).

Assay in data set [1]: not given
This is another data set of the same source.

Converted amounts (≈) assume the structure as drawn.

The solubility is the dissolved amount per volume that the medium holds. Consider `CC[C@H](C)[C@H](NC(=O)CNC(=O)[C@@H](NC(=O)[C@H](Cc1ccccc1)NC(=O)[C@H](CCCCN)NC(=O)[C@H](CO)NC(=O)[C@H](CC(N)=O)NC(=O)[C@H](C)NC(=O)[C@H](CCCCN)NC(=O)[C@@H](NC(=O)[C@H](Cc1ccc(O)cc1)NC(=O)[C@H](CCC(N)=O)NC(=O)[C@@H](N)CS)[C@@H](C)CC)[C@@H](C)CC)C(=O)N[C@H](C(=O)N[C@@H](CCC(=O)O)C(=O)N[C@@H](CC(C)C)C(=O)N[C@@H](CC(=O)O)C(=O)N[C@@H](CC(=O)O)C(=O)N1CCC[C@H]1C(=O)N[C@@H](CCCNC(=N)N)C(=O)N[C@@H](Cc1ccccc1)C(=O)N[C@@H](CCC(N)=O)C(=O)N[C@@H](CC(=O)O)C(=O)N[C@@H](CO)C(=O)N[C@@H](CO)C(=O)N[C@@H](CO)C(=O)N[C@@H](CO)C(=O)N[C@@H](CCCCN)C(=O)N[C@@H](C)C(=O)N1CCC[C@H]1C(=O)N1CCC[C@H]1C(=O)N1CCC[C@H]1C(=O)N[C@@H](CO)C(=O)N[C@@H](CC(C)C)C(=O)N1CCC[C@H]1C(=O)N[C@@H](CO)C(=O)N1CCC[C@H]1C(=O)N[C@@H](CO)C(=O)N[C@@H](CCCNC(=N)N)C(=O)N[C@@H](CC(C)C)C(=O)N1CCC[C@H]1C(=O)NCC(=O)N1CCC[C@H]1C(=O)N[C@@H](CO)C(=O)N[C@@H](CC(=O)O)C(=O)N[C@H](C(=O)N1CCC[C@H]1C(=O)N[C@H](C(=O)N[C@@H](CC(C)C)C(=O)N1CCC[C@H]1C(=O)N[C@@H](CCC(N)=O)C(=O)O)[C@@H](C)CC)[C@@H](C)O)[C@@H](C)O` [CTP37-TT2], for which, under “pH 1”, the “stability to hydrolysis in solution” value was “stable to hydrolysis except when the pH was very low (1-2)”. Moreover, the “peptide remaining soluble at acidic pH” value (pH 1.4) is on record as “all peptides remained soluble”. Further, the solubility in data set [1] was around 70 mg/mL (≈ 12.8 mM).
